Legend:
Format in all cases: physicochemical
[1] = Miscibility evaluation: blue light blocking compound dissolved in HEMA and in a silicone hydrogel contact lens composition; conditions: the higher the value, the greater the miscibility; for miscibility in silicone hydrogel contact lens composition: composition with hydrophilic monomer, first siloxane monomer and second siloxane monomer; for miscibility in HEMA: dissolved in 2-hydroxyethyl methacrylate (HEMA)
Procedure: The blue light blocking compounds of Examples 1 to 3 and Comparative Example 1 are dissolved in 2-hydroxyethyl methacrylate (represented by HEMA in the table, which is also the hydrophilic monomer used to manufacture the ophthalmic device) and a silicone hydrogel contact lens composition for observing the miscibility, and the results are shown in the following TABLE 1. The higher the value in the TABLE 1, the greater the miscibility. The silicone hydrogel contact lens composition used in the miscibility evaluation includes a polymerizable monomer, and the polymerizable monomer includes a hydrophilic monomer, a first siloxane monomer and a second siloxane monomer.

[2] = Blue light absorbance evaluation of ophthalmic devices (absorption spectrum, UV-VIS spectrophotometer SHIMADZU UV-2600); conditions: 380 nm to 460 nm
Source text: The above components can be mixed in a specific ratio to form the blue light blocking composition for manufacturing an ophthalmic device. In an embodiment, the blue light blocking composition of the present disclosure may be put into a contact lens mold, and components in the blue light blocking composition undergo a curing reaction (thermal curing reaction or photo curing reaction) through heating or irradiating light to form an ophthalmic device. The heating temperature may be between about 30° C. and about 150° C., and the heating time may be between about 1 hour and 12 hours. In an embodiment, the reaction conditions can be heating at 30-70° C. for 0-2 hours, heating at 70-100° C. for 2-4 hours, and heating at 100-150° C. for 4-12 hours. In an embodiment, a hydration process and/or a sterilization process can be performed after the curing reaction. […]
The ophthalmic devices of Examples 4 to 9 and Comparative Examples 2 and 3 are subjected to a blue light absorbance evaluation. The blue light absorbance is measured by absorption spectrum with UV-VIS spectrophotometer (SHIMADZU UV-2600). The blue light absorbance represents the amount of blue light with a wavelength between 380 nm and 460 nm that are absorbed by silicone hydrogel contact lens.

[3] = Miscibility evaluation: blue light blocking compound dissolved in HEMA and in a silicone hydrogel contact lens composition

| miscibility in silicone hydrogel contact lens composition [1] | miscibility in HEMA [1] | blue light absorbance ([2]; ophthalmic device from silicone hydrogel contact lens composition with 1.5% of the compound) | blue light absorbance ([2]; ophthalmic device from silicone hydrogel contact lens composition with 2% of the compound) | SMILES | miscibility with the silicone hydrogel contact lens compositions (observation) ([3]; addition amount 1.0%) | usable addition amount in silicone hydrogel contact lens composition ([3]; concluded from TABLE 2) |
| --- | --- | --- | --- | --- | --- | --- |
| 4.0% | 25% | 56.1% | 65.3% | C=C(C)C(=O)OCCOC(=O)/C(=C/c1ccc(N(C)C)cc1)C(=O)OC [Example 1] | – | – |
| 1.5% | 47% | – | – | C=C(C)C(=O)OCCNC(=O)/C(=C/c1ccc(N(C)C)cc1)C(=O)OC [Example 3] | – | – |
| 4.6% | 67% | – | – | C=C(C)C(=O)OCCOC(=O)C(=Cc1ccc(N(C)C)cc1)C(=O)OCCOC(=O)C(=C)C [Example 2] | – | – |

| SMILES | miscibility in silicone hydrogel contact lens composition [1] | miscibility in HEMA [1] | blue light absorbance ([2]; ophthalmic device from silicone hydrogel contact lens composition with 1.5% of the compound) | blue light absorbance ([2]; ophthalmic device from silicone hydrogel contact lens composition with 2% of the compound) | miscibility with the silicone hydrogel contact lens compositions (observation) ([3]; addition amount 1.0%) | usable addition amount in silicone hydrogel contact lens composition ([3]; concluded from TABLE 2) |
| --- | --- | --- | --- | --- | --- | --- |
| C=CS(=O)(=O)c1cc(OC)c(/N=N/C2C(=O)N(c3ccc(S(=O)(=O)[O-])cc3)N=C2C)cc1C.[Na+] (stereo not drawn) [Comparative Example 1, reference compound] | 0.1% | 5% | – | – | precipitation occurs | less than 1.0% |

Reference: patent US20250382439A1, “BLUE LIGHT BLOCKING COMPOUND, BLUE LIGHT BLOCKING COMPOSITION, USE OF BLUE LIGHT BLOCKING COMPOUND, USE OF BLUE LIGHT BLOCKING COMPOSITION AND METHOD FOR PREPARING BLUE LIGHT BLOCKING COMPOUND” (Visco Vision Inc., priority 2024, published 2025)
